The experiment concerns the target G3BP1-NTF2 (residues 1-139); NTF2-like domain of G3BP1 (Homo sapiens, UniProt Q13283). Description: biochemical. Format: binding.
Sequence of G3BP1-NTF2 (residues 1-139); NTF2-like domain of G3BP1 (Q13283 1-139): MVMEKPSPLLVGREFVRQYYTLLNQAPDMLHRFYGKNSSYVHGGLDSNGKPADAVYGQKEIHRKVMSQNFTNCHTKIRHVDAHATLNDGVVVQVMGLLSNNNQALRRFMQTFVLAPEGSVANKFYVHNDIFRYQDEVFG
Take `CN1C[C@H](C(=O)N[C@]2(C)O[C@@]3(O)[C@@H]4CCCN4C(=O)[C@H](Cc4ccccc4)N3C2=O)C[C@@H]2c3cccc4[nH]cc(c34)C[C@H]21` [DHD, Dihydroergotamine]: binding was put at a Kd of 54 µM.

Compound `O=C1NCN(c2ccccc2)C12CCN(CCCC(c1ccc(F)cc1)c1ccc(F)cc1)CC2` [FLU, Fluspiriline] returned a dissociation constant (Kd) of 71.4 µM.

On to `CNC(=O)c1c(F)cccc1Nc1nc(Nc2cc3c(cc2OC)CCN3C(=O)CN(C)C)nc2[nH]ccc12` [GSK, GSK1838705A], for which binding was put at a Kd of 98 µM.

The compound `COc1ccc(Br)cc1S(=O)(=O)NC(=O)/C=C/c1ccccc1Cc1ccc2ccccc2c1` [L-7, L-798106] returned a dissociation constant Kd of 18.7 µM.

With `CC[C@H](NC(=O)c1c(C)c(-c2ccccc2)nc2ccccc12)c1ccccc1` [SB2, SB_222200], the Kd amounted to 66 µM. This Kd is about 3.5-fold higher than that of the compound before.

The term Kd denotes the constant that tells how readily two partners part at equilibrium.
